The source of these data is PubChem BioAssay (NCI).

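Interpolation was linear, between the two tested concentrations surrounding the appropriate level; five concentrations were tested over 48 hours in 96-well plates. The concentration for 50% growth inhibition is given as GI50. Definition used: TGI = concentration required for complete inhibition of growth.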

Test systems include MDA-MB-435; SK-MEL-2 melanoma; SK-MEL-28 melanoma; SNB-19 CNS; A498 renal; CAKI-1 renal; MALME-3M melanoma; OVCAR-4 ovarian; HOP-62 NSCLC; SN12C renal.
Common to all, as to test: DTP human tumour cell line panel, 48 h

Turning to `C=C1C(=O)O[C@H]2[C@H]1CC/C(COC(=O)NCCc1c[nH]c3ccc(Cl)cc13)=C\CC[C@@]1(C)O[C@@H]21`, the GI50 is 1.52 µM with MDA-MB-435; 1.63 µM in the assay on SK-MEL-2 melanoma; 1.79 µM in the assay on SK-MEL-28 melanoma; 3.98 µM in the assay with SNB-19 CNS; 3.39 µM with A498 renal; 1.48 µM with CAKI-1 renal. Also, the GI50 with MALME-3M melanoma was 1.78 µM; in the assay on OVCAR-4 ovarian, 1.5 µM; in the assay on HOP-62 NSCLC, 2.18 µM; in the assay on SN12C renal, 1.64 µM. Besides, the TGI in the assay on MDA-MB-435 is 3 µM; in the assay on SK-MEL-2 melanoma it was 3.15 µM; in the assay with SK-MEL-28 melanoma, 3.43 µM; in the assay on SNB-19 CNS it was 14.8 µM; in the assay with A498 renal, 14.7 µM; with CAKI-1 renal it was 2.82 µM. Also, the TGI with MALME-3M melanoma came to 3.44 µM; in the assay with OVCAR-4 ovarian, 3.05 µM; in the assay on HOP-62 NSCLC, 5.48 µM; with SN12C renal it was 3.17 µM.

As for `Cc1cnc(Nc2ccc(N3CCN(C)CC3)cc2)nc1Nc1ccc(Cl)c(NS(=O)(=O)C(C)(C)C)c1`, the GI50 is 0.17 µM in the assay with MDA-MB-435; 0.31 µM in the assay on SK-MEL-2 melanoma; 0.772 µM with SK-MEL-28 melanoma; 1.34 µM in the assay on SNB-19 CNS; 0.178 µM in the assay on A498 renal; 0.0621 µM with CAKI-1 renal. In addition, the GI50 was 0.69 µM with MALME-3M melanoma, 0.18 µM in the assay on OVCAR-4 ovarian, 0.262 µM in the assay with HOP-62 NSCLC and 0.542 µM in the assay on SN12C renal. The TGI is 10.7 µM with MDA-MB-435; 3.76 µM in the assay on SK-MEL-2 melanoma; 2.73 µM in the assay on SK-MEL-28 melanoma; 18.5 µM in the assay on SNB-19 CNS; 0.881 µM in the assay on A498 renal; 2.09 µM with CAKI-1 renal. Also, the TGI amounted to 2.62 µM with MALME-3M melanoma, 23.7 µM in the assay on OVCAR-4 ovarian, 3.73 µM in the assay with HOP-62 NSCLC and 12 µM with SN12C renal.

Consider `COc1ccc(N(/C=C/C(=O)C(F)(F)F)CC(=O)c2ccc(Cl)cc2)cc1`, for which the GI50 is 5.68 µM in the assay with MDA-MB-435; 15.4 µM with SK-MEL-2 melanoma; 18.1 µM in the assay with SK-MEL-28 melanoma; 18.8 µM with SNB-19 CNS; 13.9 µM with A498 renal; 9.88 µM in the assay on CAKI-1 renal. Further, the GI50 in the assay with MALME-3M melanoma was 16 µM; in the assay on OVCAR-4 ovarian, 18 µM; in the assay on HOP-62 NSCLC, 16.6 µM; in the assay on SN12C renal, 11.2 µM. Also, the TGI in the assay with MDA-MB-435 stood at 22 µM; in the assay on SK-MEL-2 melanoma, 31.8 µM; with SK-MEL-28 melanoma, 36.2 µM; in the assay on SNB-19 CNS it was 47.1 µM; with A498 renal it was 28.7 µM; with CAKI-1 renal, 29.6 µM. The TGI is 37.6 µM in the assay on MALME-3M melanoma, 49.1 µM in the assay on OVCAR-4 ovarian, 35.8 µM in the assay on HOP-62 NSCLC and 23.3 µM in the assay with SN12C renal.

`COc1cccc(C2C3=C(COC3=O)N(CCO)c3cc4c(cc32)OCO4)c1` (configuration not stated): the GI50 in the assay with MDA-MB-435 was 0.101 µM; in the assay with SK-MEL-2 melanoma, 0.142 µM; in the assay on SK-MEL-28 melanoma it was greater than 50 µM; in the assay on A498 renal, 0.263 µM; in the assay on CAKI-1 renal, 0.449 µM; in the assay with OVCAR-4 ovarian it was 2.32 µM. Moreover, the GI50 with HOP-62 NSCLC was 0.598 µM. Besides, the TGI was 0.356 µM with MDA-MB-435; 0.43 µM in the assay on SK-MEL-2 melanoma; greater than 50 µM with SK-MEL-28 melanoma; greater than 10.6 µM in the assay with SNB-19 CNS; 5.1 µM in the assay on A498 renal; greater than 50 µM in the assay with CAKI-1 renal. For the same molecule, the TGI in the assay with MALME-3M melanoma, in the assay on OVCAR-4 ovarian, with HOP-62 NSCLC and in the assay on SN12C renal was greater than 50 µM throughout.

Regarding `CCOC(=O)c1ccc2c(c1)[n+](=O)c(C(C)=O)c(C(F)(F)F)n2[O-]`, the GI50 in the assay with MDA-MB-435 was 1.61 µM; with SK-MEL-2 melanoma, 1.89 µM; in the assay with SK-MEL-28 melanoma, 2.87 µM; with SNB-19 CNS, 1.73 µM; in the assay on A498 renal it was 1.33 µM; in the assay with CAKI-1 renal, 1.39 µM. The GI50 was 1.4 µM in the assay on MALME-3M melanoma, 1.36 µM in the assay on OVCAR-4 ovarian, 1.66 µM in the assay on HOP-62 NSCLC and 2.01 µM in the assay with SN12C renal. Besides, the TGI with MDA-MB-435 was 3.21 µM; with SK-MEL-2 melanoma, 5.22 µM; in the assay on SK-MEL-28 melanoma it was 10.1 µM; in the assay on SNB-19 CNS it was 4.18 µM; with A498 renal, 3.16 µM; in the assay on CAKI-1 renal it was 2.94 µM. For the same molecule, the TGI in the assay with MALME-3M melanoma turned out to be 2.83 µM; with OVCAR-4 ovarian, 3.22 µM; with HOP-62 NSCLC, 3.54 µM; in the assay on SN12C renal, 4.55 µM.

Regarding `COc1cccc(/C(C)=N/NC(=O)CSc2nc3ccccc3c(=O)n2CCc2ccc(S(N)(=O)=O)cc2)c1`, the GI50 was 3.18 µM in the assay with MDA-MB-435; 3.42 µM in the assay with SK-MEL-2 melanoma; 10.8 µM with SK-MEL-28 melanoma; 2.89 µM with SNB-19 CNS; 8.02 µM in the assay with A498 renal; 3.7 µM in the assay with CAKI-1 renal. For the same molecule, the GI50 with MALME-3M melanoma is 1.98 µM; in the assay with OVCAR-4 ovarian it was 1.85 µM; in the assay with HOP-62 NSCLC, 2.81 µM; with SN12C renal, 4.52 µM. Besides, the TGI worked out at 12.6 µM in the assay on MDA-MB-435; 16.3 µM in the assay with SK-MEL-2 melanoma; 38.7 µM in the assay on SK-MEL-28 melanoma; 7.87 µM with SNB-19 CNS; 24.8 µM in the assay on A498 renal; 15.4 µM with CAKI-1 renal. Also, the TGI is 4.62 µM in the assay on MALME-3M melanoma, 4.28 µM with OVCAR-4 ovarian, 9.63 µM in the assay with HOP-62 NSCLC and 19.5 µM with SN12C renal.

As to `Nc1nc(=O)n([C@@H]2CS[C@H](CO)O2)cc1F`, the GI50 with MDA-MB-435, in the assay on SK-MEL-2 melanoma, with SK-MEL-28 melanoma, in the assay with SNB-19 CNS, in the assay on A498 renal and in the assay with CAKI-1 renal was greater than 100 µM in each case. Moreover, the GI50 in the assay with MALME-3M melanoma, with OVCAR-4 ovarian, with HOP-62 NSCLC and in the assay on SN12C renal was greater than 100 µM throughout. The TGI with MDA-MB-435, in the assay with SK-MEL-2 melanoma, with SK-MEL-28 melanoma, in the assay on SNB-19 CNS, in the assay with A498 renal and with CAKI-1 renal was greater than 100 µM throughout. The TGI with MALME-3M melanoma, in the assay with OVCAR-4 ovarian, with HOP-62 NSCLC and in the assay on SN12C renal was greater than 100 µM each time.

As a reminder, the GI50 is the concentration giving 50% growth inhibition. As a reminder, the TGI is the concentration giving total growth inhibition. A high value points to less potent growth arrest.
